Measurements: patent US20260294839A1, “COMPOSITION AND METHOD OF MAKING” (priority 2023, published 2026)
Where two headings read alike, the source gives them in different places.

Key:
[1] = if it accumulates excessively at the wound site; cited from earlier work
[2] = tested on: consortium of C. albicans and A. brasiliensis; test: ISO 11930 preservative effectiveness, fungal consortium; format: cell-based; settings: for log reduction at 5 % / log reduction at 15 % / log reduction at 50 % / Nx: diluted in aqueous solution; for log reduction at 5 % / log reduction at 15 % / log reduction at 50 %: read-out: Rx (log reduction)
Method: (§1) The ISO 11930 industry standard test was to used measure the effectiveness of the compound to act as a preservative (growth inhibition) for up to 28 days (as tested). Preservative action is used to prevent spoilage and contamination of food, cosmetics, and drugs. First, compositions of the invention were diluted in Glycerol (Tables 7 to 8).
(§2) Next, compositions of the invention were diluted in aqueous solution.
Also according to ISO 11930, compositions of the invention produced a log reduction of >3.27 logs at a concentration of 50.0% v/v, 15.0% v/v, and 5.0% v/v as tested after 7 days, 14 days and 28 days at 25° C. against a consortium of Candida albicans ATCC 10231 and Aspergillus brasiliensis ATCC 16404 (Table 10). […]

Staphylococcus aureus = test: Non-peroxide activity (NPA) plate assay with catalase; format: cell-based; settings: duplicate or triplicate mean; invention sample 1 fresh, 2-5 stored 234 days (37° C., room temperature, fridge, freezer)
Method: In this test, the enzyme catalase was added to the sample to rapidly break down hydrogen peroxide to water and oxygen. […] The test was carried out using a Gram-positive bacteria, Staphylococcus aureus. The result is a value in % w/v relative to phenol standards. Two honey samples and several control samples consisting of glycerol with additional components were tested alongside the composition of the invention samples and the results are shown in Table 4. Samples were run in duplicate or triplicate and the mean result calculated.
[…] of the composition of the invention were tested: • Sample 1: a freshly made sample • Sample 2: stored for 234 days in a 37° C. incubator • Sample 3: stored for 234 days at room temperature • Sample 4: stored for 234 days in a fridge • Sample 5: stored for 234 days in a freezer
The NPA assay was used, as previously in Example 3.

[3] = tested on: consortium of S. aureus, E. coli and P. aeruginosa; test: ISO 11930 preservative effectiveness, bacterial consortium; format: cell-based; settings: for log reduction at 50 % v/v: 50.0% v/v aqueous; for log reduction at 5 % / log reduction at 15 % / log reduction at 50 % / Nx: diluted in aqueous solution; for log reduction at 5 % / log reduction at 15 % / log reduction at 50 %: read-out: Rx (log reduction)
Method: as §1, §2
According to ISO 11930, compositions of the invention produced a log reduction of >4.14 logs at a concentration of 50.0% v/v, 15.0% v/v, and 5.0% v/v as tested after 7 days, 14 days and 28 days at 25° C. against a consortium of Staphylococcus aureus ATCC 6538, Escherichia coli NCTC 10536 and Pseudomonas aeruginosa ATCC 15442 (Table 9). […]

[4] = ISO 11930, aqueous solution, 25° C.

SMILES: [Ag] [Silver, silver]
- effect on wound healing [1]: inhibit healing

SMILES: OCC(O)CO [Glycerol, glycerol]
- log reduction ([2]; 50.0%, 15.0%, 5.0% v/v, 7, 14 and 28 days, 25° C.): did not produce a measurable log reduction
- log reduction at 5 % ([2]; 168 h, 5% (V/V), day 7): < 1.65
- log reduction at 15 % ([2]; 168 h, 15% (V/V), day 7): < 1.65
- log reduction at 50 % ([2]; 168 h, 50% (V/V), day 7): < 1.65
- log reduction at 5 % ([2]; 336 h, 5% (V/V), day 14): < 1.65
- log reduction at 15 % ([2]; 336 h, 15% (V/V), day 14): < 1.65
- log reduction at 50 % ([2]; 336 h, 50% (V/V), day 14): < 1.65
- log reduction at 5 % ([2]; 672 h, 5% (V/V), day 28): < 1.65
- log reduction at 15 % ([2]; 672 h, 15% (V/V), day 28): < 1.65
- log reduction at 50 % ([2]; 672 h, 50% (V/V), day 28): < 1.65
- Preservation Criteria A for fungi [2, 4]: does not conform to Preservation Criteria A for fungi
- Nx ([2]; 5% (V/V), day 0): >3.30E+03
- Nx ([2]; 5% (V/V), day 7): >3.30E+03
- Nx ([2]; 5% (V/V), day 14): >3.30E+03
- Nx ([2]; 5% (V/V), day 28): >3.30E+03
- Nx ([2]; 15% (V/V), day 0): >3.30E+03
- Nx ([2]; 15% (V/V), day 7): >3.30E+03
- Nx ([2]; 15% (V/V), day 14): >3.30E+03
- Nx ([2]; 15% (V/V), day 28): >3.30E+03
- Nx ([2]; 50% (V/V), day 0): >3.30E+03
- Nx ([2]; 50% (V/V), day 7): >3.30E+03
- Nx ([2]; 50% (V/V), day 14): >3.30E+03
- Nx ([2]; 50% (V/V), day 28): >3.30E+03
- level at which it is a preservative, fungi ([2]; not tested, shows a fail at 50.0%): > 60.0%
- NPA, Mean Result (Staphylococcus aureus): <9.5 % w/v phenol equivalent
- level at which it is a preservative, bacteria [3]: > 50.0 % V/V
- log reduction at 50 % v/v ([3]; 14 days and 28 days, 25° C.): > 4.21
- log reduction at 50 % v/v ([3]; 168 h, 7 days, 25° C.): 3.67
- log reduction at 5 % ([3]; 168 h, 5% (V/V), day 7): < 2.84
- log reduction at 15 % ([3]; 168 h, 15% (V/V), day 7): < 2.84
- log reduction at 50 % ([3]; 168 h, 50% (V/V), day 7): 3.67
- log reduction at 5 % ([3]; 336 h, 5% (V/V), day 14): < 2.84
- log reduction at 15 % ([3]; 336 h, 15% (V/V), day 14): 3.28
- log reduction at 50 % ([3]; 336 h, 50% (V/V), day 14): > 4.21
- log reduction at 5 % ([3]; 672 h, 5% (V/V), day 28): < 2.84
- log reduction at 15 % ([3]; 672 h, 15% (V/V), day 28): > 4.21
- log reduction at 50 % ([3]; 672 h, 50% (V/V), day 28): > 4.21
- Preservation Criteria A for bacteria [3, 4]: conforms to Preservation Criteria A for bacteria
- Nx ([3]; 5% (V/V), day 0): >3.30E+03
- Nx ([3]; 5% (V/V), day 7): >3.30E+03
- Nx ([3]; 5% (V/V), day 14): >3.30E+03
- Nx ([3]; 5% (V/V), day 28): >3.30E+03
- Nx ([3]; 15% (V/V), day 0): >3.30E+03
- Nx ([3]; 15% (V/V), day 7): >3.30E+03
- Nx ([3]; 15% (V/V), day 14): 1.20E+03
- Nx ([3]; 15% (V/V), day 28): <1.40E+02
- Nx ([3]; 50% (V/V), day 0): >3.30E+03
- Nx ([3]; 50% (V/V), day 7): 4.95E+02
- Nx ([3]; 50% (V/V), day 14): <1.40E+02
- Nx ([3]; 50% (V/V), day 28): <1.40E+02
